Measurements published in the supplement of paper PMC9334596.

Test system: mPer2Luc MEF
Experiment: PER2::LUC luminescence relative to vehicle control (fold of vehicle); higher = higher PER2::LUC reporter signal
Procedure: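 Secondary dose-response validation of 72 circadian-modulating compounds in mPer2Luc MEFs, threefold dilution series of six doses from 10 uM down to 0.04 uM. PER2::LUC luminescence read at 24 h and 30 h after treatment, normalised to vehicle (DMSO) control.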

[1] = time after treatment: 24-hour, concentration: 0.04μM
[2] = time after treatment: 24-hour, concentration: 0.37μM
[3] = time after treatment: 24-hour, concentration: 3.33μM
[4] = time after treatment: 24-hour, concentration: 10μM
[5] = time after treatment: 30-hour, concentration: 0.04μM
[6] = time after treatment: 30-hour, concentration: 0.37μM
[7] = time after treatment: 30-hour, concentration: 3.33μM
[8] = time after treatment: 30-hour, concentration: 10μM

Row | Compound | PER2::LUC luminescence [1] | PER2::LUC luminescence [2] | PER2::LUC luminescence [3] | PER2::LUC luminescence [4] | PER2::LUC luminescence [5] | PER2::LUC luminescence [6] | PER2::LUC luminescence [7] | PER2::LUC luminescence [8]
1 | CCOc1cc2ncc(C#N)c(Nc3ccc(F)c(Cl)c3)c2cc1NC(=O)/C=C/CN(C)C [Pelitinib (EKB-569)] | 0.891 | 0.933 | 0.78 | 0.334 | 0.836 | 0.815 | 0.618 | 0.227
2 | CN1CCN(c2nc3ccccc3nc2Cl)CC1 | 1 | 1.02 | 1.02 | 0.958 | 1.04 | 1.05 | 1.04 | 0.971
3 | CC[C@@H]1C(=O)N(C)c2cnc(Nc3ccc(C(=O)N[C@H]4CC[C@H](N5CCN(CC6CC6)CC5)CC4)cc3OC)nc2N1C(C)C [BI-6727 (Volasertib)] | 0.71 | 0.565 | 0.287 | 0.074 | 0.679 | 0.574 | 0.326 | 0.08
4 | C[C@@H](O[C@H]1OCCN(Cc2nn(P(=O)(O)O)c(=O)[nH]2)[C@H]1c1ccc(F)cc1)c1cc(C(F)(F)F)cc(C(F)(F)F)c1 [Fosaprepitant dimeglumine] | 1.06 | 1.02 | 0.627 | 0.456 | 0.978 | 0.951 | 0.891 | 0.849
5 | C[C@H](NC(=O)/C(C#N)=C/c1cccc(Br)n1)c1ccccc1 [WP1066] | 1.1 | 1.03 | 1.14 | 0.142 | 1.02 | 1.02 | 0.891 | 0.13
6 | Nc1nccc(Oc2ccc(NC(=O)c3c[nH]cc(-c4ccc(F)cc4)c3=O)cc2F)c1Cl | 1 | 1.02 | 1.03 | 1.12 | 1.06 | 1.03 | 0.929 | 1
7 | COc1ccc(C[C@H]2NC[C@H](O)[C@H]2OC(C)=O)cc1 [Anisomycin] | 0.056 | 0.032 | 0.002 | 0.001 | 0.06 | 0.05 | 0.001 | 0.001
8 | CN1CCN(C2CCC(n3cc(-c4ccc(Oc5ccccc5)cc4)c4c(N)ncnc43)CC2)CC1 (stereo unspecified) | 0.613 | 0.502 | 0.203 | 0.006 | 0.566 | 0.477 | 0.212 | 0.003
9 | CN(C)C/C=C/C(=O)Nc1cc2c(Nc3ccc(F)c(Cl)c3)ncnc2cc1O[C@H]1CCOC1 [BIBW2992 DiMaleate] | 0.774 | 0.77 | 0.48 | 0.026 | 0.705 | 0.696 | 0.442 | 0.028
10 | O=C1c2ccccc2C(=O)c2oc(-c3ccccc3)nc21 [SJB2-043] | 1.11 | 1.29 | 1.94 | 1.65 | 1.17 | 1.2 | 1.36 | 1.11
11 | Cn1cc(/C=C/C(=O)c2cccc(F)c2)cc1/C=C/C(=O)NO [MC1568] | 0.933 | 0.956 | 0.979 | 1.34 | 0.907 | 0.894 | 0.843 | 1.04
12 | O=C(/C=C/c1cccnc1)NCCCCC1CCN(C(=O)c2ccccc2)CC1 [FK866] | 0.987 | 1.02 | 0.955 | 0.89 | 0.67 | 0.643 | 0.595 | 0.49
